Read-outs that look alike come from different tables or passages of the source.
Legend:
Assay type in all cases: in vivo
Barnyard Grass [1] = assay: Postemergent activity
Protocol: (§1) Representative compositions of the present invention were evaluated for the postemergence control of species of plants listed in Table A. In these evaluations, pots of the plant species listed in Table A, grown to a height of about 10 cms, were used. Aqueous spray compositions, containing various amounts of 2-[4-(2-fluoro-4-trifluoromethylphenoxy)-phenoxy]propionic acid methy ester, i.e., 125 ppm, 62.5 ppm, 31.25 ppm, 15.6 ppm, 7.8 ppm and 3.9 ppm, respectively, were applied to separate pots. The spray compositions were made by mixing the active ingredient in acetone to 1/2 the final volume, i.e., twice the final concentration. An equal amount of water was added to the active ingredient/acetone mixture wherein the water contained 0.1 percent by weight of TWEEN® 200 surfactant. The application to the plants was made to the point of run-off and was carried out with conventional spraying equipment. Other pots were sprayed with similar compositions containing no toxicant to serve as controls. Thereafter, the pots were maintained under conditions conducive for plant growth. Two weeks after treatment, the pots were examined for plant growth and evaluated on a scale of 0 to 100 where 0 represents no effect and 100 represents complete kill. The results of the examination of the treated pots are set forth below in Table A.
(§2) Substantially the same procedures as those described in Example A were repeated except that the active ingredients were 2-[4-(4-chloro-2-fluorophenoxy)phenoxy]propionic acid; methyl ester and its R-enantiomer and 2-(4-(4-bromo-2-fluorophenoxy)phenoxy propionic acid; methyl ester and its R enantiomer. The results are listed below in Table B.
(§3) In further operations employing the above general procedures and the indicated test compounds the following results were obtained: […]

Crabgrass [2] = assay: Postemergent activity
Protocol: as §1, §2, §3

Wheat [3] = assay: Postemergent activity; conditions: Triticum aestivum, post-emergence, 336 h, read-out: % Control
Protocol: as §1, §2, §3

Wild Oats [4] = assay: Postemergent activity; conditions: Avena fatua, post-emergence, 336 h, read-out: % Control
Protocol: as §1, §2, §3

Yellow Foxtail [5] = assay: Postemergent activity
Protocol: (§4) Representative compositions of the present invention were evaluated for the postemergence control of species of plants listed in Table A. In these evaluations, pots of the plant species listed in Table A, grown to a height of about 10 cms, were used. […] The spray compositions were made by mixing the active ingredient in acetone to 1/2 the final volume, i.e., twice the final concentration. An equal amount of water was added to the active ingredient/acetone mixture wherein the water contained 0.1 percent by weight of TWEEN® 200 surfactant. The application to the plants was made to the point of run-off and was carried out with conventional spraying equipment. […] Thereafter, the pots were maintained under conditions conducive for plant growth.

Johnson Grass [6] = assay: Postemergent activity
Protocol: as §1

Barnyard Grass [7] = assay: Preemergent activity; conditions: Echinochloa crus-galli, pre-emergence, read-out: Preemergence Control; for pest or weed control at 140 g/ha: 0.14 kgs/hectare; for pest or weed control at 280 g/ha: 0.28 kgs/hectare; for pest or weed control at 560 g/ha: 0.56 kgs/hectare; for pest or weed control at 1120 g/ha: 1.12 kgs/hectare
Protocol: (§5) In a representative operation, 2-[4-(2-fluoro-4-trifluoromethylphenoxy)phenoxy]propionic acid methyl ester, to be utilized in a series of tests, is dissolved in acetone to one half of the final volume (twice the final concentration) to be used and the acetone solution in each case is admixed with an equal volume of water containing 0.1 percent by weight of Tween-20 surface active material (Tween-20 is a trademark of Atlas Chemical Company). The composition, generally in the nature of an emulsion, was employed to treat separate respective seed beds of sandy loam soil of good nutrient content wherein each seed bed contained separate groups of good viable seeds, each group being of one of a known plant species. The various beds were positioned side by side and exposed to substantially identical conditions of temperature and light. Each bed was maintained so as to prevent any interaction with the test compound in different seed beds. Each seed bed was treated with the composition as a spray employing conventional spraying equipment to deposit a predetermined amount of the compound uniformly throughout the surface of the bed. Another seed bed was treated only with the acetone-Tween-20 water mixture with no chemical added to serve as a control.

Johnson Grass [8] = assay: Preemergent activity; conditions: Sorghum halepense, pre-emergence, read-out: Preemergence Control; for pest or weed control at 70 g/ha: 0.07 kgs/hectare; for pest or weed control at 140 g/ha: 0.14 kgs/hectare; for pest or weed control at 280 g/ha: 0.28 kgs/hectare; for pest or weed control at 560 g/ha: 0.56 kgs/hectare; for pest or weed control at 1120 g/ha: 1.12 kgs/hectare
Protocol: as §5

Wheat [9] = assay: Preemergent activity; conditions: Triticum aestivum, pre-emergence, read-out: Preemergence Control; for plant injury at 70 g/ha: 0.07 kgs/hectare; for plant injury at 140 g/ha: 0.14 kgs/hectare; for plant injury at 280 g/ha: 0.28 kgs/hectare; for plant injury at 560 g/ha: 0.56 kgs/hectare; for plant injury at 1120 g/ha: 1.12 kgs/hectare
Protocol: as §5

Wild Oats [10] = assay: Preemergent activity; conditions: Avena fatua, pre-emergence, read-out: Preemergence Control; for pest or weed control at 70 g/ha: 0.07 kgs/hectare; for pest or weed control at 140 g/ha: 0.14 kgs/hectare; for pest or weed control at 280 g/ha: 0.28 kgs/hectare; for pest or weed control at 560 g/ha: 0.56 kgs/hectare; for pest or weed control at 1120 g/ha: 1.12 kgs/hectare
Protocol: as §5

Yellow Foxtail [11] = assay: Preemergent activity; conditions: Setaria, pre-emergence, read-out: Preemergence Control; for pest or weed control at 70 g/ha: 0.07 kgs/hectare; for pest or weed control at 140 g/ha: 0.14 kgs/hectare; for pest or weed control at 280 g/ha: 0.28 kgs/hectare; for pest or weed control at 560 g/ha: 0.56 kgs/hectare; for pest or weed control at 1120 g/ha: 1.12 kgs/hectare
Protocol: as §5

Barley = assay: Postemergent activity
Protocol: as §4

Blackgrass = assay: Postemergent activity
Protocol: as §4

Cheatgrass = assay: Postemergent activity
Protocol: as §4

Green Foxtail = assay: Postemergent activity
Protocol: as §4

Crabgrass [12] = assay: Preemergent activity
Protocol: as §5

Structure (SMILES): COC(=O)C(C)Oc1ccc(Oc2ccc(I)cc2F)cc1 (stereo not shown) [2-(4-(2-fluoro-4-iodophenoxy)phenoxy)propionic acid methyl ester]
- % Control (Barnyard Grass [1]; 15.6 ppm): 10%
- % Control (Barnyard Grass [1]; 31.25 ppm): 85%
- % Control (Barnyard Grass [1]; 62.5 ppm): 100%
- % Control (Barnyard Grass [1]; 125 ppm): 100%
- % Control (Crabgrass [2]; 15.6 ppm): 100%
- % Control (Crabgrass [2]; 31.25 ppm): 100%
- % Control (Crabgrass [2]; 62.5 ppm): 100%
- % Control (Crabgrass [2]; 125 ppm): 100%
- plant injury at 15.6 ppm (Wheat [3]; 15.6 ppm): 0%
- plant injury at 31.25 ppm (Wheat [3]; 31.25 ppm): 0%
- plant injury at 62.5 ppm (Wheat [3]; 62.5 ppm): 0%
- plant injury at 125 ppm (Wheat [3]; 125 ppm): 0%
- pest or weed control at 15.6 ppm (Wild Oats [4]; 15.6 ppm): 0%
- pest or weed control at 31.25 ppm (Wild Oats [4]; 31.25 ppm): 0%
- pest or weed control at 62.5 ppm (Wild Oats [4]; 62.5 ppm): 0%
- pest or weed control at 125 ppm (Wild Oats [4]; 125 ppm): 0%
- % Control (Yellow Foxtail [5]; 15.6 ppm): 90%
- % Control (Yellow Foxtail [5]; 31.25 ppm): 100%
- % Control (Yellow Foxtail [5]; 62.5 ppm): 100%
- % Control (Yellow Foxtail [5]; 125 ppm): 100%
- % Control (Johnson Grass [6]; 15.6 ppm): 90%
- % Control (Johnson Grass [6]; 31.25 ppm): 100%
- % Control (Johnson Grass [6]; 62.5 ppm): 100%
- % Control (Johnson Grass [6]; 125 ppm): 100%
- pest or weed control at 140 g/ha (Barnyard Grass [7]): 50%
- pest or weed control at 280 g/ha (Barnyard Grass [7]): 100%
- pest or weed control at 560 g/ha (Barnyard Grass [7]): 97%
- pest or weed control at 1120 g/ha (Barnyard Grass [7]): 100%
- pest or weed control at 70 g/ha (Johnson Grass [8]): 0%
- pest or weed control at 140 g/ha (Johnson Grass [8]): 0%
- pest or weed control at 280 g/ha (Johnson Grass [8]): 60%
- pest or weed control at 560 g/ha (Johnson Grass [8]): 99%
- pest or weed control at 1120 g/ha (Johnson Grass [8]): 100%
- plant injury at 70 g/ha (Wheat [9]): 0%
- plant injury at 140 g/ha (Wheat [9]): 0%
- plant injury at 280 g/ha (Wheat [9]): 0%
- plant injury at 560 g/ha (Wheat [9]): 20%
- plant injury at 1120 g/ha (Wheat [9]): 20%
- pest or weed control at 70 g/ha (Wild Oats [10]): 0%
- pest or weed control at 140 g/ha (Wild Oats [10]): 0%
- pest or weed control at 280 g/ha (Wild Oats [10]): 0%
- pest or weed control at 560 g/ha (Wild Oats [10]): 95%
- pest or weed control at 1120 g/ha (Wild Oats [10]): 99%
- pest or weed control at 70 g/ha (Yellow Foxtail [11]): 0%
- pest or weed control at 140 g/ha (Yellow Foxtail [11]): 0%
- pest or weed control at 280 g/ha (Yellow Foxtail [11]): 20%
- pest or weed control at 560 g/ha (Yellow Foxtail [11]): 100%
- pest or weed control at 1120 g/ha (Yellow Foxtail [11]): 100%

Structure (SMILES): COC(=O)[C@@H](C)Oc1ccc(Oc2ccc(Cl)cc2F)cc1 [4-Chloro-(R-Enantiomer), R enantiomer of 2-[4-(4-chloro-2-fluorophenoxy)phenoxy]propionic acid methyl ester]
- plant injury at 7.8 ppm (Wheat [3]): 0%
- plant injury at 15.6 ppm (Wheat [3]): 0%
- plant injury at 31.25 ppm (Wheat [3]): 0%
- plant injury at 62.5 ppm (Wheat [3]): 70%
- plant injury at 125 ppm (Wheat [3]): 60%
- pest or weed control at 7.8 ppm (Wild Oats [4]): 40%
- pest or weed control at 15.6 ppm (Wild Oats [4]): 80%
- pest or weed control at 31.25 ppm (Wild Oats [4]): 100%
- pest or weed control at 62.5 ppm (Wild Oats [4]): 100%
- pest or weed control at 125 ppm (Wild Oats [4]): 100%
- % Control (Barley; 7.8 ppm): 0%
- % Control (Barley; 15.6 ppm): 0%
- % Control (Barley; 31.25 ppm): 0%
- % Control (Barley; 62.5 ppm): 0%
- % Control (Barley; 125 ppm): 40%
- % Control (Blackgrass; 0.4 ppm): 0%
- % Control (Blackgrass; 0.8 ppm): 40%
- % Control (Blackgrass; 1.6 ppm): 80%
- % Control (Blackgrass; 3.2 ppm): 90%
- % Control (Blackgrass; 6.3 ppm): 95%
- % Control (Blackgrass; 12.5 ppm): 100%
- % Control (Blackgrass; 25 ppm): 100%
- % Control (Cheatgrass; 0.4 ppm): 0%
- % Control (Cheatgrass; 0.8 ppm): 0%
- % Control (Cheatgrass; 1.6 ppm): 0%
- % Control (Cheatgrass; 3.2 ppm): 0%
- % Control (Cheatgrass; 6.3 ppm): 0%
- % Control (Cheatgrass; 12.5 ppm): 0%
- % Control (Cheatgrass; 25 ppm): 0%
- % Control (Green Foxtail; 0.4 ppm): 0%
- % Control (Green Foxtail; 0.8 ppm): 80%
- % Control (Green Foxtail; 1.6 ppm): 100%
- % Control (Green Foxtail; 3.2 ppm): 100%
- % Control (Green Foxtail; 6.3 ppm): 100%
- % Control (Green Foxtail; 12.5 ppm): 100%
- % Control (Green Foxtail; 25 ppm): 100%
- % Control (Yellow Foxtail [5]; 0.4 ppm): 0%
- % Control (Yellow Foxtail [5]; 0.8 ppm): 0%
- % Control (Yellow Foxtail [5]; 1.6 ppm): 0%
- % Control (Yellow Foxtail [5]; 3.2 ppm): 40%
- % Control (Yellow Foxtail [5]; 6.3 ppm): 60%
- % Control (Yellow Foxtail [5]; 12.5 ppm): 100%
- % Control (Yellow Foxtail [5]; 25 ppm): 100%
- pest or weed control at 70 g/ha (Barnyard Grass [7]; 0.07 kgs/hectare): 0%
- pest or weed control at 140 g/ha (Barnyard Grass [7]): 10%
- pest or weed control at 280 g/ha (Barnyard Grass [7]): 98%
- pest or weed control at 560 g/ha (Barnyard Grass [7]): 100%
- pest or weed control at 1120 g/ha (Barnyard Grass [7]): 100%
- Preemergence Control (Crabgrass [12]; 0.07 kgs/hectare): 70%
- Preemergence Control (Crabgrass [12]; 0.14 kgs/hectare): 98%
- Preemergence Control (Crabgrass [12]; 0.28 kgs/hectare): 100%
- Preemergence Control (Crabgrass [12]; 0.56 kgs/hectare): 100%
- Preemergence Control (Crabgrass [12]; 1.12 kgs/hectare): 100%
- pest or weed control at 70 g/ha (Johnson Grass [8]): 0%
- pest or weed control at 140 g/ha (Johnson Grass [8]): 0%
- pest or weed control at 280 g/ha (Johnson Grass [8]): 80%
- pest or weed control at 560 g/ha (Johnson Grass [8]): 95%
- pest or weed control at 1120 g/ha (Johnson Grass [8]): 98%
- plant injury at 70 g/ha (Wheat [9]): 0%
- plant injury at 140 g/ha (Wheat [9]): 0%
- plant injury at 280 g/ha (Wheat [9]): 0%
- plant injury at 560 g/ha (Wheat [9]): 10%
- plant injury at 1120 g/ha (Wheat [9]): 20%
- pest or weed control at 70 g/ha (Wild Oats [10]): 0%
- pest or weed control at 140 g/ha (Wild Oats [10]): 0%
- pest or weed control at 280 g/ha (Wild Oats [10]): 0%
- pest or weed control at 560 g/ha (Wild Oats [10]): 60%
- pest or weed control at 1120 g/ha (Wild Oats [10]): 80%
- pest or weed control at 70 g/ha (Yellow Foxtail [11]): 0%
- pest or weed control at 140 g/ha (Yellow Foxtail [11]): 0%
- pest or weed control at 280 g/ha (Yellow Foxtail [11]): 30%
- pest or weed control at 560 g/ha (Yellow Foxtail [11]): 95%
- pest or weed control at 1120 g/ha (Yellow Foxtail [11]): 98%
